Values of other authors as cited in patent US20090061012A1 (priority 2007, published 2009).

What was measured:
Conditions in all cases: in vivo
[1] = test system: Lemon, Blue, and Great White Sharks
[2] = test system: sharks
[3] = test system: sharks; remark: listed apart in the source
[4] = test system: shark's respiratory systems via the gill rakes

Row | Molecule | repelling sharks relative to pardaxin [1] | also measured
1 | CCCCCCCCCCCCOS(=O)(=O)[O-].[Li+] [LLS, lithium lauryl sulfate] | even better than pardaxin | 
2 | CCCCCCCCCCCCOS(=O)(=O)[O-].[Na+] [SDS, sodium dodecyl sulphate] |  | concentration at which effective as a repellent [2]: 43.6 ppm
3 | CCCCCCCCCCCCOS(=O)(=O)[O-].[Na+] [SLS, sodium lauryl sulfate] | even better than pardaxin | effectiveness in surrounding-cloud mode dispersions [3]: not effective
4 | CCCCCCCCCCCCCCCCCCOS(=O)(=O)[O-].[Na+] [SOS, sodium octadecyl sulphate] | even better than pardaxin | 
5 | pardaxin |  | repellent impact on sharks [4]: significant repellent impact
